Data taken from patent publication US4125605A, “Method of employing oral TRH” (The United States Government, priority 1977, dated 1978).

Key:
[1] = test system: nursing women between the 5th and 35 postpartum days; format: in vivo, human; conditions: 5 mg TRH oral single dose
Method: To test the efficacy of TRH, six nursing women between the 5th and 35 postpartum days were studied. Each received one 5 mg capsule of TRH in the early morning after an overnight fast. Six nursing women matched for postpartum interval received a placebo of lactose sugar. Blood samples were drawn from an indwelling catheter in an antecubital vein at -5,0,30,60,120, and 180 min.
A set of specific radioimmunoassays were employed for the measurement of plasma hormones. PRL was measured by a modification of the radioimmunoassay of Hwang et al., Proc. Nat. Acad. Sci., 68:1902 (1971) using the iodination technique of Greenwood et al., Biochem J., 89:114 (1963). Plasma LH and FSH were measured by using a modification of the double antibody radioimmunoassay of Midgely, Endocrinology, 79:10 (1966). Thyrotropin (TSH) was determined by a double antibody radioimmunoassay of Odell, Rayford and Ross, J. Lab. Clin. Med., 70:973 (1967). Plasma thyroxine (T4) by column was measured by the method of Pileggi and Kessler, Clin. Chem., 14:339 (1968). A modification of the immunoassay of Roth et al., Science, 140:987 (1963), was used to measure plasma growth hormone (GH) utilizing the iodination technique for prolactin. Antibody bound radioactivity was separated by the dextran-charcoal method of Herbert et al., J. Clin. Endocrinol. Metab., 25:1375 (1965). […]

[2] = test system: women practicing full nursing; format: in vivo, human
Method: (§1) Sixty women volunteered for this major study and each was instructed to practice full nursing for at least 90 postpartum days. Fifty percent of the women were dropped from the study before the end of the first postpartum month due to changes in nursing patterns. The remaining 30 women were randomly divided into TRH and control groups. TRH, 5 mg or a lactose placebo, was administered daily at 0800 and 2000 h for 30 days beginning on day 29 postpartum. Blood and milk samples were obtained on the first postpartum day and at weekly intervals between 1500 and 1600 h. Thus, blood samples were never obtained sooner than 7 h after the ingestion of TRH. Each women's nursing pattern was recorded by nurse-midwives. Charts of infant growth and development were plotted weekly.
(§2) With regard to sampling procedures, individual blood samples were collected in heparinized vacuum tubes. Neither nursing nor maternal food intake had occurred in the previous 3 h. The sampling procedure in Examples II and III consisted of placing the patient at rest for a minimum of 15 min after which blood was drawn from an antecubital vein. Blood samples were centrifuged and plasma was removed and stored at -20C. Samples originating outside the continental United States were delivered to the laboratory at quarterly intervals in dry ice by special messenger.
(§3) In Examples II and III, milk was obtained from each breast following blood sampling and immediately prior to nursing. The women were instructed to grasp first the right and then the left breast, kneading it gently toward the nipple. Thus, 10 ml or more of the fore milk was removed with ease through each nipple and combined in a sterile container. The sample was thoroughly mixed by vigorous shaking. A compressed tablet of mercuric chloride and potassium dichromate was then added as a preservative to each sample before storing.
(§4) A set of specific radioimmunoassays were employed for the measurement of plasma hormones. PRL was measured by a modification of the radioimmunoassay of Hwang et al., Proc. Nat. Acad. Sci., 68:1902 (1971) using the iodination technique of Greenwood et al., Biochem J., 89:114 (1963). Plasma LH and FSH were measured by using a modification of the double antibody radioimmunoassay of Midgely, Endocrinology, 79:10 (1966). Thyrotropin (TSH) was determined by a double antibody radioimmunoassay of Odell, Rayford and Ross, J. Lab. Clin. Med., 70:973 (1967). Plasma thyroxine (T4) by column was measured by the method of Pileggi and Kessler, Clin. Chem., 14:339 (1968). A modification of the immunoassay of Roth et al., Science, 140:987 (1963), was used to measure plasma growth hormone (GH) utilizing the iodination technique for prolactin. Antibody bound radioactivity was separated by the dextran-charcoal method of Herbert et al., J. Clin. Endocrinol. Metab., 25:1375 (1965). Each of the references mentioned in this paragraph is incorporated herein by reference.
For the analysis of milk composition, samples were thawed and held at room temperature for no more than 30 min. Aliquots were analyzed for percent fat, protein and lactose concentrations using the infrared milk analyzer (IRMA). Samples less than 30 ml in volume (about 10% of the total) were diluted up to 35 ml with distilled water. These were then homogenized with a Biosonic Model 3 Ultrasonicater (Bronwill Scientific Co., Rochester, N.Y.) at an exposed intensity of 70 vibrations per second for 30 sec. These samples were stored overnight at 4° C. and then analyzed for composition. […]

[3] = test system: infants of TRH-treated mothers; set-up: species or system human; conditions: in vivo, po
Method: as §1, with “Charts of infant growth and development were plotted weekly.” left out
A set of specific radioimmunoassays were employed for the measurement of plasma hormones. PRL was measured by a modification of the radioimmunoassay of Hwang et al., Proc. Nat. […] Plasma LH and FSH were measured by using a modification of the double antibody radioimmunoassay of Midgely, Endocrinology, 79:10 (1966). Thyrotropin (TSH) was determined by a double antibody radioimmunoassay of Odell, Rayford and Ross, J. Lab. […] Plasma thyroxine (T4) by column was measured by the method of Pileggi and Kessler, Clin. Chem., 14:339 (1968). […] Antibody bound radioactivity was separated by the dextran-charcoal method of Herbert et al., J. Clin. Endocrinol. […]

[4] = test system: women with lactational insufficiency practicing partial nursing; test: Example III: oral TRH 5 mg or 20 mg twice a day for 5 days in women with lactational insufficiency; format: in vivo, human
Method: A group of 13 women with lactational insufficiency practicing partial nursing between 13-71 postpartum days were next studied. Four received TRH 5 mg and nine received 20 mg twice a day at 0800 and 2000 h for 5 days. Blood samples were obtained prior to the first capsule and daily thereafter for 5 days before taking the morning dose of TRH. Daily milk samples were also collected.
as §2, §3, §4
For the analysis of milk composition, samples were thawed and held at room temperature for no more than 30 min. Aliquots were analyzed for percent fat, protein and lactose concentrations using the infrared milk analyzer (IRMA). Samples less than 30 ml in volume (about 10% of the total) were diluted up to 35 ml with distilled water. These were then homogenized with a Biosonic Model 3 Ultrasonicater (Bronwill Scientific Co., Rochester, N.Y.) at an exposed intensity of 70 vibrations per second for 30 sec. These samples were stored overnight at 4° C. and then analyzed for composition. Corrections were made for any dilution.

[5] = test system: women with insufficient lactation; set-up: species or system human; conditions: in vivo
Method: as §4
As an experimental exercise, two women with insufficient lactation gave consent for the administration of 40 mg of oral TRH twice a day or the same time schedule as noted above. On the 7th day of therapy the patients were reevaluated and found to have lost weight. Their pulse rate was elevated as was their blood pressure. […]

[6] = test system: surrogate mothers; test: Induction of lactation in surrogate (adoptive) mothers with conjugated estrogens plus oral TRH; format: in vivo, human
Source text: An additional use of TRH is in surrogate mothers. Studies in accordance with the present invention have involved the administration of TRH to adoptive mothers. In most instances, such women have undergone voluntary sterilization following the birth of natural children but, for one reason or another, wish to have another child. By the present invention, lactation has been induced in such women for the benefit of their adopted child by attempting to simulate the effects of pregnancy on prolactin secretion and, at the same time, by requesting that the […] practice auto-stimulation of the nipple. The technique of stimulation is as follows: Women are treated with 5 to 10 mg of conjugated estrogens equine twice a day for 14 days. Caution with regard to the possibility of side effects is given to each woman based upon the known effects of such estrogens on the vascular system. Beginning on the 7th day of estrogen treatment, oral TRH 5-10 mg twice a day, at intervals of about 12 hours, is administered for the final 7 days of treatment with estrogen. At the end of the 14th estrogen-treatment day, TRH is continued while the frequency of nipple stimulation is increased from four times daily to every 4 hours. In the women studied thus far, milk production can be induced within 72 hours following the withdrawal of the estrogen. […]

[7] = test system: puerperally lactating mothers; test: Reestablishment of lactation in puerperally lactating mothers after emergency surgery; format: in vivo, human; conditions: mothers separated from child by emergency surgery; with coincident sucking
Source text: The administration of TRH may also be initiated in puerperally lactating mothers who have to undergo emergency surgery such as polycystectomy, apendectomy, or the repair of fractures. Such surgery usually takes the mother away from the child for periods of time up to 14 days and a mother who is desirous of breastfeeding may find great difficulty in reestablishing lactation when she returns home from the hospital. In such cases, the administration of TRH has been associated with the reestablishment of lactation within 48 hours. It is to be emphasized that such lactation cannot be firmly established without coincident sucking of the nipple by the child.

[8] = test system: postpartum women; test: Low-dose TRH in postpartum women: prolactin versus thyrotropin response; format: in vivo, human
[9] = 20 mg dosage capsules three times a day, oral; cited from earlier work
[10] = 5 mg TRH every 12 h for 5 days, four women
[11] = 20 mg twice daily, Day 1 (before initial ingestion)

NC(=O)[C@@H]1CCCN1C(=O)[C@H](Cc1cnc[nH]1)NC(=O)[C@@H]1CCC(=O)N1 [TRH, thyrotropin releasing hormone]
mean maximal PRL increment ([1]; at 60 min, six nursing mothers): 46.3 ng/mL | peripheral PRL throughout the sampling period ([1]; sampling to 180 min): remained elevated | weekly 1500 h maternal PRL concentration ([2]; 5 mg TRH twice daily for 30 days, full nursing): not associated with any significant change | milk composition (percent of fat and protein concentration) ([2]; TRH versus control group, full nursing): did not differ significantly | bleeding patterns (postovulatory vaginal bleeding) ([2]; beyond the 14th postpartum week, TRH-treated versus placebo-treated mothers): no difference | T4 values ([2]; in vivo): normal | gonadotropin levels ([2]; measured weekly, TRH versus controls): identical in controls | infant plasma growth hormone [3]: 32.2 ± 4.9 ng/mL | infant plasma prolactin [3]: 200.3 ± 19.2 ng/mL | increase in the PRL concentration [4, 10]: 50% | milk production and letdown [4, 10]: increased | % Milk fat, Mean ± SE [4, 11]: 2.99±0.4% | % Milk protein, Mean ± SE [4, 11]: 1.81±0.2% | Plasma PRL, Mean ± SE ([4]; 20 mg twice daily, Day 1 (before initial ingestion), nine women): 27.8 ± 5.3 ng/mL | % Milk fat, Mean ± SE ([4]; 20 mg twice daily, Day 2, NS): 3.88±0.6% | % Milk protein, Mean ± SE ([4]; 20 mg twice daily, Day 2, NS): 1.63±0.2% | Plasma PRL, Mean ± SE ([4]; 20 mg twice daily, Day 2, P .0005 vs day 1): 53.1 ± 8.7 ng/mL | % Milk fat, Mean ± SE ([4]; 20 mg twice daily, Day 3, NS): 3.21± 0.4% | % Milk protein, Mean ± SE ([4]; 20 mg twice daily, Day 3, NS): 1.61± 0.1% | Plasma PRL, Mean ± SE ([4]; 20 mg twice daily, Day 3, P .005 vs day 1): 73.3 ± 12.4 ng/mL | % Milk fat, Mean ± SE ([4]; 20 mg twice daily, Day 4, NS): 3.79±0.4% | % Milk protein, Mean ± SE ([4]; 20 mg twice daily, Day 4, NS): 1.62±0.1% | Plasma PRL, Mean ± SE ([4]; 20 mg twice daily, Day 4, NS vs day 1): 44.1 ± 7.0 ng/mL | % Milk fat, Mean ± SE ([4]; 20 mg twice daily, Day 5, NS): 3.02±0.2% | % Milk protein, Mean ± SE ([4]; 20 mg twice daily, Day 5, NS): 1.60±0.1% | Plasma PRL, Mean ± SE ([4]; 20 mg twice daily, Day 5, NS vs day 1): 54.8 ± 13.9 ng/mL | mean percent fat composition of milk, greater than pretreatment ([4]; 20 mg twice daily, day two of treatment, difference not significant): ~1% | percent of lactose concentration in milk ([4]; milk samples obtained from all studies): remained constant | return to full nursing ([4]; partially nursing women after TRH ingestion): all were able to return to full nursing | breast engorgement and milk letdown ([4]; reported by each woman as a result of TRH ingestion): subjective and objective increases | reevaluation after discontinuation [5]: no clinical or laboratory evidence of hyperthyroidism | time to induction of milk production following the withdrawal of the estrogen ([6]; conjugated estrogens equine 5 to 10 mg twice a day 14 days, oral TRH 5-10 mg twice a day from 7th day, nipple stimulation): ≤ 72 h | basal plasma prolactin concentration ([6]; conjugated estrogens equine then oral TRH 5-10 mg twice a day, surrogate mothers): increase | time to reestablishment of lactation [7]: ≤ 48 h | dose for maximum prolactin response, times lower than dose for threshold thyrotropin secretion [8]: 5 to 10 times | instances in which peripheral prolactin concentration is elevated ([8]; TRH in low doses): 95% | effect on the yield or composition of milk [9]: no significant effect
